Assay results published in PubChem BioAssay (NCI).
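Five concentrations, 48 hours, 96-well plates. The concentration for full growth arrest is given as TGI.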

Tests used:
Experiment in all cases: inhibition of tumour cell growth, NCI panel, 48 h
[1] = tested on: 786-0 renal
[2] = tested on: A498 renal
[3] = tested on: ACHN renal
[4] = tested on: BT-549 breast
[5] = tested on: CAKI-1 renal
[6] = tested on: CCRF-CEM leukemia
[7] = tested on: COLO 205 colon
[8] = tested on: DU-145 prostate
[9] = tested on: EKVX NSCLC
[10] = tested on: HCC-2998 colon
[11] = tested on: HCT-116 colon
[12] = tested on: HCT-15 colon
[13] = tested on: HL-60(TB) leukemia
[14] = tested on: HOP-62 NSCLC
[15] = tested on: HOP-92 NSCLC
[16] = tested on: HS 578T breast
[17] = tested on: HT29 colon
[18] = tested on: IGROV1 ovarian
[19] = tested on: K-562 leukemia
[20] = tested on: KM12 colon
[21] = tested on: LOX IMVI melanoma
[22] = tested on: M14 melanoma
[23] = tested on: MCF7 breast
[24] = tested on: MDA-MB-231 breast
[25] = tested on: MDA-MB-435
[26] = tested on: MOLT-4 leukemia
[27] = tested on: NCI-H226 lung
[28] = tested on: NCI-H23 lung
[29] = tested on: NCI-H460 lung
[30] = tested on: NCI/ADR-RES ovarian
[31] = tested on: OVCAR-4 ovarian
[32] = tested on: OVCAR-8 ovarian
[33] = tested on: PC-3 prostate
[34] = tested on: RPMI-8226 leukemia
[35] = tested on: RXF 393 renal
[36] = tested on: SF-268 CNS
[37] = tested on: SF-295 CNS
[38] = tested on: SF-539 CNS
[39] = tested on: SK-MEL-2 melanoma
[40] = tested on: SK-MEL-28 melanoma
[41] = tested on: SK-MEL-5 melanoma
[42] = tested on: SK-OV-3 ovarian
[43] = tested on: SNB-19 CNS
[44] = tested on: SNB-75 CNS
[45] = tested on: SR leukemia
[46] = tested on: SW-620 colon
[47] = tested on: T-47D breast
[48] = tested on: TK-10 renal
[49] = tested on: U251 CNS
[50] = tested on: UACC-257 melanoma
[51] = tested on: UACC-62 melanoma
[52] = tested on: UO-31 renal

Measured: TGI

OC(c1ccco1)C(F)(F)c1nc2ccccc2o1 (configuration not stated)
> 100 µM: all assays above
